The subject of data set [1] is late passage prostate epithelial cells. In kind it is cell-based. As to conditions: for increase of total cell number after 5 days: KSFM plus individual compound alone at 5 μM; for increase of total cell number after 5 days / cell proliferation when used together with A83-01: 1 μM, 0.2 μM; for cell proliferation when used together with A83-01: KSFM supplemented with A83-01 plus compound at 5 μM, 5 days. The text has this:
As described above, these include Rho kinase inhibitors (i.e., Rho-associated protein kinase inhibitors) such as Y-27632, SR 3677, GSK 429286 and Thiazovivin; PAK1 inhibitor IPA-3; and myosin II inhibitor (i.e., non-muscle myosin II (NM II) inhibitor) Blebbistatin.

Data set [2] has as its system human telomerase reverse transcriptase (hTERT) expression in bronchial epithelial cells. Briefly: hTERT expression by quantitative real-time PCR in bronchial epithelial cells. The data set is classed as cell-based. As to conditions: KSFM. As to the method:
(§1) Total RNA was prepared using TRIzol® Plus RNA Purification Kit (Life Technologies, 12183-555) and PureLink® RNA Mini Kit (Life Technologies, 12183018A), following the manufacturer's instructions. One hundred nanogram total RNA was used for the determination of human telomerase reverse transcriptase (hTERT) expression using the TaqMan® RNA-to-CT™ 1-Step Kit (Life Technologies, 4392938), following the protocol provided by the supplier. hTERT primers and Taqman probe used were as follows: forward primer, 5′-[…]-3′ (SEQ ID NO:1), reverse primer, 5′-[…]-3′ (SEQ ID NO:2) and Taqman probe, 5′-[…]-3′ (SEQ ID NO:3).
(§2) In this example, hTERT expression in epithelial cells was assessed in the presence of an ALK5 inhibitor, a Rho kinase inhibitor (i.e., a Rho-associated protein kinase inhibitor), or both. Expression of hTERT gene was examined by quantitative real-time PCR in bronchial epithelial cells and prostate epithelial cells. The cells were treated with an ALK5 inhibitor, A83-01, or a Rho kinase inhibitor (i.e., a Rho-associated protein kinase inhibitor), Y-27632, or both inhibitors, at different passages in KSFM.

Data set [3] deals with human telomerase reverse transcriptase (hTERT) expression in prostate epithelial cells. Put plainly: hTERT expression by quantitative real-time PCR in prostate epithelial cells. As to conditions: KSFM. In kind it is cell-based. As to the method: as §1, §2
As shown in FIG. 6A and FIG. 6B, prostate epithelial cells at early passage (p2) expressed low level of hTERT, which quickly diminished at passage 3 and became non-detectable by passage 5.

The test system of data set [4] is prostate epithelial cells. Put plainly: Plating efficiency of prostate epithelial cells in KSFM. The data set is classed as cell-based, human. From the text:
(§3) In this example, epithelial cell plating efficiency, i.e., number of cells that efficiently attach to the cell culture surfaces, continue to divide and grow into colonies, was examined under various conditions.
(§4) However, those few cells that did attach continued to proliferate.
Many prostate epithelial cells attached to regular tissue culture surface in the presence of both A83-01 and Y-27632 at day 2 after plating.

In data set [5] the test system is bronchial epithelial cells. Put plainly: Plating efficiency of bronchial epithelial cells in KSFM. The data set is classed as cell-based, human.
Text: as §3, §4
Many bronchial epithelial cells attached to regular tissue culture surface in the presence of both A83-01 and Y-27632 at day 2 after plating.

In data set [6] the test system is prostate epithelial cells. Put plainly: Growth (population doublings) of prostate epithelial cells. In kind it is cell-based, human. As to conditions: KSFM; for total population doublings: serial culture (FIG. 14). The protocol: (§5) Epithelial cells (prostate epithelial cells and bronchial epithelial cells) were plated at 3,000-10,000 viable cells/cm^2 in tissue culture vessels, using culture medium as indicated in Examples 2 to 5 and FIGS. 1 to 17, and incubated at 37° C. with 5% CO2. The medium was changed every 2 or 3 days. Cells were sub-cultured using standard trypsinization method when they were about 70-90% confluent. Total cell number was determined using the Countess II Automated Cell Counter (Life Technologies, AMQAX1000) following manufacturer's instructions.
(§6) A formula used for the calculation of population doublings (PD) is presented in Equation A: n=3.32*(log Y−log I)+X Equation A where n=the final PD number at end of a given subculture, Y=the cell yield at the time of harvesting, I=the cell number used as inoculum to begin that subculture, and X=the doubling level of the inoculum used to initiate the subculture being quantitated.
(§7) Prostate and bronchial epithelial cells were grown in KSFM in the presence of Rho kinase inhibitor (i.e., Rho-associated protein kinase inhibitor) Y-27632.
To examine the effects of additional in vitro and/or ex vivo growth conditions, prostate epithelial cells were grown in KSFM or PrEGM in the presence of media alone, ALK5 inhibitor A83-01, Rho kinase inhibitor (i.e., Rho-associated protein kinase inhibitor) Y-27632, or both (with or without collagen).

In data set [7] the test system is bronchial epithelial cells. Put plainly: Growth (population doublings) of bronchial epithelial cells. As to conditions: KSFM; for total population doublings: serial culture (FIG. 15). The data set is classed as cell-based, human. As to the method: as §5, §6, §7
Similar to the experiment above, bronchial epithelial cells were grown in KSFM in the presence of media alone, ALK5 inhibitor A83-01, Rho kinase inhibitor (i.e., Rho-associated protein kinase inhibitor) Y-27632, or both (with or without collagen).

The test system of data set [8] is human foreskin keratinocytes (HFK) and human bronchial epithelial cells (HBEC). Briefly: Cell growth with increasing concentrations of isoproterenol. The data set is classed as cell-based. As to conditions: added to KSFM plus 1 μM A83-01 and 5 μM Y-27632, six days. As to the method: In a further investigation, epithelial cell growth was assessed in the presence of a beta-adrenergic agonist (i.e., a beta-adrenergic receptor agonist). Human foreskin keratinocytes (HFK) and human bronchial epithelial cells (HBEC) were cultured in KSFM plus 1 μM A83-01 and 5 μM Y-27632, supplemented with increasing concentrations of isoproterenol (a beta-adrenergic receptor agonist that increases cytosolic cAMP levels). Cell numbers were counted after six days to calculate cell growth relative to control.

[9] abbreviates: regular (uncoated) tissue culture surface.
The mark [10] stands for this setting: added together with A83-01, regular tissue culture surface.
Where [11] appears, read: used alone, continuous use (FIG. 13).

SMILES strings stand for the structures. “Also recorded” adds a separate entry of the source. Where a name gives a salt, the structure may show the parent alone. Read-outs that look alike come from different tables or passages of the source. Some results are limits rather than exact numbers.

Take `Cc1ccc2c(c1)C(=O)C1(O)CCN(c3ccccc3)C1=N2` (racemic) [Blebbistatin, (±)-1,2,3,3a-Tetrahydro-3a-hydroxy-6-methyl-1-phenyl-4H-pyrrolo[2,3-b]quinolin-4-one]: in data set [1], the “increase of total cell number after 5 days” value (“increase of total cell number” below) is “did not increase proliferation” and the “cell proliferation when used together with A83-01” value (“cell proliferation” for short) is “synergistically increased”.
For `Cc1cccc(-c2nn(C(=S)Nc3ccccc3)cc2-c2ccnc3ccccc23)n1` [A83-01, 3-(6-Methyl-2-pyridinyl)-N-phenyl-4-(4-quinolinyl)-1H-pyrazole-1-carbothioamide], the hTERT expression result in data set [2] (early passage (p3)) is “robustly induced hTERT expression”; in data set [2] (late passage (p6)), “sustained measurable hTERT expression”; in data set [3] (early passage (p2)) it was “quickly induced hTERT expression”; in data set [3] (late passage (p5)), “sustained measurable hTERT expression”. For the same compound, the values for the plating efficiency result in data set [4] (setting [9]) and in data set [5] (setting [9]) were “interfered with prostate epithelial cell plating efficiency” and “interfered with bronchial epithelial cell plating efficiency”, respectively. For the same compound, the total population doublings result in data set [6] and in data set [7] was “also increased the total population doublings” throughout. In addition, the “increase of total cell number” value in data set [1] is listed as “pronounced increase of total cell number; also recorded: significantly increased”.
On to `CC1=C(C(=O)Nc2cc3cn[nH]c3cc2F)C(c2ccc(C(F)(F)F)cc2)CC(=O)N1` (stereo not shown) [GSK 429286, 4-[4-(Trifluoromethyl)phenyl]-N-(6-Fluoro-1H-indazol-5-yl)-2-methyl-6-oxo-1,4,5,6-tetrahydro-3-pyridinecarboxamide], for which, in data set [1], the “increase of total cell number” value is listed as “slight increase of total cell numbers” and the “cell proliferation” value is reported as “synergistic effect”.
For `O=C(NC1CCOCC1)c1ccc(-c2cc(-c3c[nH]nc3-c3ccccn3)ccn2)cc1` [GW 788388, 4-[4-[3-(2-Pyridinyl)-1H-pyrazol-4-yl]-2-pyridinyl]-N-(tetrahydro-2H-pyran-4-yl)-benzamide], in data set [1], the “increase of total cell number” value is “pronounced increase of total cell number” and the “cell proliferation” value was “little extra increase”.
In the case of `Oc1ccc2ccccc2c1SSc1c(O)ccc2ccccc12` [IPA-3, 1,1′-Dithiodi-2-naphthol], in data set [1], the “increase of total cell number” value is “did not increase proliferation” and the “cell proliferation” value is on record as “synergistically increased”. Moreover, the cell death result in data set [1] (highest concentration tested (5 μM)) is on record as “nearly total cell death”.
Consider `Cc1cccc(-c2n[nH]cc2-c2ccc3ncccc3n2)n1` [RepSox, 2-(3-(6-Methylpyridine-2-yl)-1H-pyrazol-4-yl)-1,5-naphthyridine], for which, in data set [1], the “increase of total cell number” value is “pronounced increase of total cell number” and the “cell proliferation” value is “little extra increase”.
On the same counts, the results for `NC(=O)c1ccc(-c2nc(-c3ccc4c(c3)OCO4)c(-c3ccccn3)[nH]2)cc1` [SB 431542, 4-[4-(1,3-benzodioxol-5-yl)-5-(2-pyridinyl)-1H-imidazol-2-yl]benzamide] are “pronounced increase of total cell number” and “little extra increase”.
Turning to `CN(C)CCOc1cc(-c2cn[nH]c2)ccc1NC(=O)C1COc2ccccc2O1` (stereo not shown) [SR 3677, N-[2-[2-(Dimethylamino)ethoxy]-4-(1H-pyrazol-4-yl)phenyl-2,3-dihydro-1,4-benzodioxin-2-carboxamidedi hydrochloride], in data set [1], the “increase of total cell number” value was “slight increase of total cell numbers” and the “cell proliferation” value is “synergistic effect”.
In the same order, the values of `O=C(NCc1ccccc1)c1csc(Nc2ccncn2)n1` [Thiazovivin, N-Benzyl-[2-(pyrimidin-4-yl)amino]thiazole-4-carboxamide] are “slight increase of total cell numbers” and “synergistic effect”.
For `C[C@@H](N)[C@H]1CC[C@H](C(=O)Nc2ccncc2)CC1.Cl.Cl` [Y-27632, (R)-(+)-trans-4-(1-Aminoethyl)-N-(4-Pyridyl)cyclohexanecarboxamide dihydrochloride], the hTERT expression entry in data set [2] (early passage (p3)) is given as “slightly induced hTERT expression”; in data set [2] (late passage (p6)), “non-detectable”; in data set [3] (early passage (p2)) it was “induced hTERT expression”; in data set [3] (late passage (p5)), “non-detectable”. For the same compound, the plating efficiency entry in data set [4] (setting [10]) and in data set [5] (setting [10]) was “ameliorated the low plating efficiency” throughout. The “population doubling reached shortly before senescence” value in data set [6] was over 20 PD. For the same compound, the total population doublings result in data set [6] and in data set [7] was “slightly increased the total population doublings” each time. The “proliferation at late passage” value in data set [6] (setting [11]) and in data set [7] (setting [11]) was “did not promote the proliferation” in each case. Also, the “increase of total cell number” value in data set [1] (dihydrochloride) is “slight increase of total cell numbers; also recorded: slight increase of cell proliferation”. Moreover, the “cell proliferation” value in data set [1] was “synergistically increased”.
As to `CC(C)NCC(O)c1ccc(O)c(O)c1` (stereo not shown) [isoproterenol], the “cell growth relative to control” value in data set [8] is recorded as “further increased epithelial cells growth”.

For the origin of these results see patent US10100285B2, “Ex vivo proliferation of epithelial cells” (PROPAGENIX INC., priority 2015, dated 2018).
